According to US6448442B1, “Contrast media” (Amersham Health AS, priority 1999, dated 2002):

How the values were obtained:
[1] = Viscosity in aqueous solution at 20° C. (Example 82, Tables 1 and 2); format: physicochemical; conditions: for Viscosity at 400 mgI/ml (CALCULATED): calculated for 400 mgI/ml; for Viscosity 350 mgI/ml (CALCULATED): calculated for 350 mgI/ml
Description: The viscosities in aqueous solution at 20° C. for some further compounds described above were determined and are listed in Table 2. […]

[2] = Determination of viscosity (Example 121, flow time in syringe against reference sample); format: physicochemical; conditions: 350 mgI/ml, 20° C.
Description: The apparatus consisted of a thermostated 10 μl graduated sample syringe connected to a conical shaped 100 μl sample vial. The syringe needle as well as a probe for temperature measurements (±0.2° C.) was inserted through an airtight septum at the top of the vial. Through the septum was also inserted a small tubing connected to an air syringe via a PTFE tubing.
To determine viscosity, 15≧75 μl of the sample liquid was placed at the bottom of the sample vial. The liquid was forced up into the sample syringe by a slight over pressure generated manually by the air syringe. When the syringe was almost filled, the over pressure was released so the liquid, forced only by gravity, could flow freely out from the syringe back into the vial. The time for the liquid surface to pass between the marks of e.g. 5 and 10 μl in the syringe was measured […]
The viscosity is calculated as follows: […]
ηS=Viscosity of the sample
ηR=Viscosity of a reference sample with known viscosity and with similar composition as the sample e.g. Iohexol or Iodixanol dS=Density of sample solution dR=Density of reference solution tS=Average time for sample surface to pass between two marks in the syringe tR=Corresponding time for reference sample
The results of these determinations of viscosity for various of the present Examples and two commercially available X-ray contrast media are shown in Table 1′ below. In all cases, the values refer to concentrations of 350 mgI/ml at a temperature of 20° C.

Molecule | Viscosity at 400 mgI/ml (CALCULATED) [1] [mPas] | Viscosity 350 mgI/ml (CALCULATED) [1] [mPas] | Viscosity [2] [mPas] | also measured
CN(CC(O)CO)C(=O)c1c(I)c(CO)c(I)c(NC(=O)C(O)CO)c1I (stereo not shown) [Example 46] | 16.4 | – | – | Viscosity 20° C. ([1]; concentration 474 mgI/ml): 41 mPas
CN(CC(O)CO)C(=O)c1c(I)c(CO)c(I)c(N(CCO)C(=O)C(O)CO)c1I (stereo not shown) [Example 47, 5-[N′-(2-Hydroxyethyl)-2,3-dihydroxypropionylamino]-3-hydroxymethyl-N-methyl-N-(2,3-dihydroxypropyl)-2,4,6-triiodobenzamide] | 16.4 | – | – | Viscosity 20° C. ([1]; concentration 447 mgI/ml): 28 mPas
O=C(NC(CO)CO)c1c(I)c(CO)c(I)c(N(CCO)C(=O)CO)c1I [Example 49, 5-[N′-(2-Hydroxyethyl)-hydroxyacetamido]-3-hydroxymethyl-N-(1,3-dihydroxyprop-2-yl)-2,4,6-triiodobenzamide] | 13.2 | – | – | Viscosity 20° C. ([1]; concentration 380 mgI/ml): 11 mPas
O=C(NCCO)c1c(I)c(CO)c(I)c(NC(=O)C(O)CO)c1I (stereo not shown) [Example 52, 5-(2,3-Dihydroxypropionylamino)-3-hydroxymethyl-N-(2-hydroxyethyl)-2,4,6-triiodobenzamide] | 9.8 | – | – | Viscosity 20° C. ([1]; concentration 514 mgI/ml): 29 mPas
O=C(NC(CO)(CO)CO)c1c(I)c(CO)c(I)c(N(CCO)C(=O)CO)c1I [Example 55, 5-[N′-(2-Hydroxyethyl)-hydroxyacetamido]-3-hydroxymethyl-N-[tris-(hydroxymethyl)-methyl]-2,4,6-triiodobenzamide] | 19.4 | – | – | Viscosity 20° C. ([1]; concentration 429 mgI/ml): 28 mPas
O=C(C(O)CO)N(CCO)c1c(I)c(CCO)c(I)c(N(CCO)C(=O)C(O)CO)c1I (stereo not shown) [Example 62, 3,5-Bis[N-(2-hydroxyethyl)-2,3-dihydroxypropionylamino]-2,4,6-triiodo-(2-hydroxyethyl)benzene] | 14.3 | – | – | Viscosity 20° C. ([1]; concentration 353 mgI/ml): 9 mPas
O=C(Nc1c(I)c(CC(O)CO)c(I)c(NC(=O)C(O)CO)c1I)C(O)CO (stereo not shown) [Example 64, 3,5-Bis-(2,3-dihydroxypropionylamino)-2,4,6-triiodo-(2,3-dihydroxy-propyl)-benzene] | 13.0 | 8.3 | – | Viscosity 20° C. ([1]; concentration 419 mgI/ml): 16 mPas
CC(O)C(=O)N(CCO)c1c(I)c(CO)c(I)c(C(=O)NC(CO)C(O)CO)c1I (stereo not shown) [Example 65, 5-[N′-(2-Hydroxyethyl)-2-hydroxypropionylamino]-3-hydroxymethyl-N-(1,3,4-trihydroxybut-2-yl)-2,4,6-triiodobenzamide] | 17.8 | 10.4 | – | Viscosity 20° C. ([1]; concentration 413 mgI/ml): 21 mPas
O=C(NCCO)c1c(I)c(CO)c(I)c(N(CC(O)CO)C(=O)C(O)CO)c1I (stereo not shown) [Example 66, 5-[N′-(2,3-Dihydroxypropyl)-2,3-dihydroxypropionylamino]-3-hydroxymethyl-N-(2-hydroxyethyl)-2,4,6-triiodobenzamide] | 15.2 | 9.3 | – | Viscosity 20° C. ([1]; concentration 401 mgI/ml): 15 mPas
O=C(CO)Nc1c(I)c(CO)c(I)c(C(=O)N(CC(O)CO)CC(O)CO)c1I (stereo not shown) [Example 67, 5-(hydroxyacetamido)-3-hydroxymethyl-N,N-bis-(2,3-dihydroxy-propyl)-2,4,6-triiodobenzamide] | 16.2 | – | – | Viscosity 20° C. ([1]; concentration 407 mgI/ml): 18 mPas
O=C(c1c(I)c(CO)c(I)c(N(CCO)C(=O)CO)c1I)N(CC(O)CO)CC(O)CO (stereo not shown) [Example 68, 5-[N′-(2-Hydroxyethyl)-hydroxyacetamido]-3-hydroxymethyl-N,N-bis-(2,3-dihydroxypropyl)-2,4,6-tiiodobenzamide] | 19.1 | – | – | Viscosity 20° C. ([1]; concentration 450 mgI/ml): 31 mPas
CC(O)C(=O)Nc1c(I)c(CO)c(I)c(C(=O)N(CC(O)CO)CC(O)CO)c1I (stereo not shown) [Example 69, 5-(2-Hydroxypropionylamino)-3-hydroxymethyl-N,N-bis-(2,3-dihydroxypropyl)-2,4,6-triiodobenzamide] | 17.0 | – | – | Viscosity 20° C. ([1]; concentration 417 mgI/ml): 21 mPas
O=C(c1c(I)c(CO)c(I)c(N2CCCC(O)C2=O)c1I)N(CC(O)CO)CC(O)CO (stereo not shown) [Example 70, 5-(3-Hydroxy-2-oxo-1-piperidinyl)-3-hydroxymethyl-N,N-bis-(2,3-dihydroxypropyl)-2,4,6-triiodobenzamide] | 27.8 | – | – | Viscosity 20° C. ([1]; concentration 361 mgI/ml): 16 mPas
O=C(CO)Nc1c(I)c(CC(O)CO)c(I)c(NC(=O)CO)c1I (stereo not shown) [Example 71, 3,5-Bis-(Hydroxyacetamido)-2,4,6-triiodo-(2,3-dihydroxypropyl)benzene] | 8.8 | 6.0 | – | Viscosity 20° C. ([1]; concentration 455 mgI/ml): 14 mPas
O=C(CO)Nc1c(I)c(CC(O)CO)c(I)c(N(CCO)C(=O)CO)c1I (stereo not shown) [Example 72, 5-Hydroxyacetamido-3-[N-(2-hydroxyethyl)-hydroxyacetamido]-2,4,6-triiodo-(2,3-dihydroxypropyl)benzene] | 11.0 | 7.2 | – | Viscosity 20° C. ([1]; concentration 432 mgI/ml): 15 mPas
O=C(CO)N(CCO)c1c(I)c(CC(O)CO)c(I)c(N(CCO)C(=O)CO)c1I (stereo not shown) [Example 73, 3,5-Bis-[N,N′-(2-hydroxyethyl)-hydroxyacetamido]-2,4,6-triiodo-(2,3-dihydroxypropyl)benzene] | 10.4 | 6.7 | – | Viscosity 20° C. ([1]; concentration 396 mgI/ml): 10 mPas
O=C(CO)Nc1c(I)c(CC(O)CO)c(I)c(N(CC(O)CO)C(=O)CO)c1I (stereo not shown) [Example 74, 5-Hydroxyacetamido-3-[N-(2,3-dihydroxypropyl)-hydroxyacetamido]-2,4,6-triiodo-(2,3-dihydroxypropyl)benzene] | 15.8 | 9.3 | – | Viscosity 20° C. ([1]; concentration 399 mgI/ml): 16 mPas
O=C(CO)N(CC(O)CO)c1c(I)c(CC(O)CO)c(I)c(N(CC(O)CO)C(=O)CO)c1I (stereo not shown) [Example 75, 3,5-Bis-[N,N′-(2,3-dihydroxypropyl)-hydroxyacetamido]-2,4,6-triiodo-(2,3-dihydroxypropyl)benzene] | 28.4 | 14.6 | – | Viscosity 20° C. ([1]; concentration 359 mgI/ml): 16 mPas
Nc1c(I)c(NC(=O)CO)c(I)c(C(O)C(=O)NC(=O)C(O)CO)c1I (stereo not shown) [Example 98, N-(2,3-Dihydroxypropionyl)-N′-hydroxyacetyl-3,5-diamino-2,4,6-triiodomandeloamide] | – | – | 6.9 | –
Nc1c(I)c(NC(=O)C(O)CO)c(I)c(C(O)C(=O)NC(=O)C(O)CO)c1I (stereo not shown) [Example 99, N,N′-Bis(2,3-Dihydroxypropionyl)-3,5-diamino-2,4,6-triiodomandeloamide] | – | – | 7.4 | –
NC(=O)C(O)c1c(I)c(NC(=O)[C@H](O)[C@@H](O)CO)c(I)c(NC(=O)[C@H](O)[C@@H](O)CO)c1I (stereo partly drawn) [Example 104, N,N′-Bis(2R,3S,4-trihydroxybutyryl)-3,5-diamino-2,4,6-triiodomandeloamide] | – | – | 17.0 | –
NC(=O)C(O)c1c(I)c(NC(=O)CO)c(I)c(NC(=O)[C@H](O)[C@H](O)CO)c1I (stereo partly drawn) [Example 106, N-(2R,3R,4-Trihydroxybutyryl)-N′-hydroxyacetyl-3,5-diamino-2,4,6-triiodomandeloamide] | – | – | 8.8 | –
CC1(C)OCC(CNC(=O)c2c(I)c(NC(=O)C3COC(C)(C)O3)c(I)c(C(C#N)O[Si](C)(C)C)c2I)O1 (stereo not shown) [Example 113, 5-(2,2-Dimethyl-1,3-dioxolane-4-carbamido)-3-(O-trimethylsilyl-cyanomethyl)-N-(2,2-dimethyl-1,3-dioxolane-4-methyl)-2,4,6-triiodobenzamide] | – | – | 7.5 | –
NC(=O)C(O)c1c(I)c(NC(=O)C(O)CO)c(I)c(C(=O)NCC(O)CO)c1I (stereo not shown) [Example 114, 5-(2,3-Dihydroxypropionyl)amino-3-N-(2,3-dihydroxypropyl)carbamido-2,4,6-triiodomandeloamide] | – | – | 10.1 | –
N,N′-Bis(2,3-dihydroxybutyryl)-3,5-diamino-2,4,6-triiodomandeloamide [Example 101] | – | – | 13.4 | –
N-(2R,3S,4-Trihydroxybutyryl)-N′-hydroxyacetyl-3,5-diamino-2,4,6-triiodomandeloamide [Example 100] | – | – | 9.7 | –
